Molecules are shown by their SMILES.

The series is described as follows: gradient 5% acetonitrile 3 min, to 50% in 2 min, to 85% in 15 min, held 3 min, 100 µL/min. The following applies: column: Zorbax Extend-C18 2.1 x 50 mm; eluents: water / acetonitrile, 0.1% formic acid. The method in brief:
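Each retention time is based on an adduct peak selected computationally and verified by manual inspection. Measurements used HPLC–quadrupole time-of-flight mass spectrometry in positive and negative ionization mode on mixtures of ~100 pure standards. Chromatography ran on a Zorbax Extend-C18 column (2.1 × 50 mm, 1.8 μm) at 100 μL/min with water and acetonitrile, each containing 0.1% formic acid, and dead and dwell volumes of 40 μL and 900 μL.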
The compound `COc1cc(-c2nnc(-c3cccc(S(=O)(=O)N4CCC(C)CC4)c3)o2)cc(OC)c1OC` showed an RP-LC retention time of 755 s.

`O=C(NCc1csc(-c2ccccc2)n1)C1CCCN(c2cc(-n3cccn3)ncn2)C1` (stereo not drawn) came in with an RP-LC retention time of 813 s.

`CC(=O)Nc1onc(C)c1-c1ccc(C)c(S(=O)(=O)N2CCN(c3ccccn3)CC2)c1`: the RP-LC retention time worked out at 628 s.

Take `Cc1nn(C(C)C(=O)NC2CCCCC2)c(=O)c2c(C)n(-c3ccccc3)nc12` (stereo not drawn): the RP-LC retention time stood at 946 s.

With `O=C(Cc1cccs1)Nc1nnc(-c2ccccc2Cl)s1`, the RP-LC retention time was 845 s.

In turn, `O=C(NCc1csc(C2CCCN(C(=O)COc3ccccc3)C2)n1)C1CC1` (stereo not drawn) displayed an RP-LC retention time of 718 s.

`Fc1ccc(-c2nc(-c3ccc4nncn4c3)no2)cc1` showed an RP-LC retention time of 810 s.

In turn, `CCc1noc(-c2cccnc2N2CCCN(Cc3c(F)cccc3Cl)CC2)n1` returned an RP-LC retention time of 668 s.

`CCn1c(=O)c(N2CCC(NC(=O)Nc3ccccc3Br)CC2)nc2ccccc21` displayed an RP-LC retention time of 1030 s.

`COc1ccc(CC(=O)NCc2c(C)nc3sc(C)nn23)c(Cl)c1` yielded an RP-LC retention time of 622 s.

The compound `CCN1CCN(C(=O)CN2c3ccc(Br)cc3-c3ccccc3S2(=O)=O)CC1` yielded an RP-LC retention time of 670 s.

The compound `Cc1cc(F)ccc1NC(=O)C1CCCN(c2cnc3nccnc3c2)C1` (stereo not drawn) gave an RP-LC retention time of 711 s.

Compound `CC1CCC(Nc2c(-c3cccc(F)c3)nc3ncccn23)CC1` (stereo not drawn) had an RP-LC retention time of 905 s.

As for `Cc1ccc2nc(-c3cccc(Br)c3)c(Nc3ccccc3C)n2c1`, the RP-LC retention time was 849 s.

Compound `COCCNC(=O)CN1c2ccccc2NC2=C(C(=O)CC(C)(C)C2)C1c1cccs1` (stereo not drawn) registered an RP-LC retention time of 727 s.

Regarding `CN1CCN(C(c2ccncc2)c2c(NC(=O)c3ccco3)sc3c2CCCC3)CC1` (stereo not drawn), the RP-LC retention time turned out to be 636 s.

For `Cc1ccnc(Nc2nc(C)c(C(=O)N3CCC(C(N)=O)(N4CCCCC4)CC3)s2)c1`, the RP-LC retention time was found to be 561 s.

On to `O=C(CSc1nnc(-c2ccncc2)o1)N1CCCc2ccccc21`, for which the RP-LC retention time was 788 s.

The compound `Cc1cc2c(c(=O)n(-c3ccc(F)cc3)c(=O)n2CC(=O)Nc2cccc(Cl)c2)n1C` came in with an RP-LC retention time of 887 s.

Turning to `O=C(Cn1cccc(-c2nc(-c3ccccc3)no2)c1=O)Nc1ccc(Cl)c(C(F)(F)F)c1`, the RP-LC retention time is 1040 s.

Take `CCC1CN(C(=O)N2CCC(C(=O)NCCc3ccco3)CC2)c2cc(C)ccc2O1` (stereo not drawn): the RP-LC retention time came out at 706 s.

In turn, `CCNS(=O)(=O)c1cccnc1Nc1ccc(C)c(Cl)c1` gave an RP-LC retention time of 1110 s.

In turn, `COC(=O)C(C)NC(=O)N1CCCN(C2=NS(=O)(=O)C(c3ccccc3)=C2C)CC1` (stereo not drawn) gave an RP-LC retention time of 715 s.

With `CCOC(=O)c1ccccc1NC(=O)CSc1ccc(-c2ccc3c(c2)OCO3)nn1`, the RP-LC retention time was found to be 974 s.

For `Cc1ccccc1NC(=O)NCCn1c(C(F)(F)F)nc2cccnc21`, the RP-LC retention time is 736 s.

Compound `CCc1nc2ccccc2c(=O)n1Cc1noc(COc2ccc(OC)cc2)n1` registered an RP-LC retention time of 921 s.

Take `Cc1cc(C(=O)NC2CC2)no1`: the RP-LC retention time came to 628 s.

Compound `Cc1cccc(N2CCN(c3ncc(S(=O)(=O)c4ccc(C)c(C)c4)c(N)n3)CC2)c1` registered an RP-LC retention time of 1190 s.

`Cc1nc(-c2csc(S(=O)(=O)N3CCCC(C(=O)NCc4cccs4)C3)c2)no1` (stereo not drawn) showed an RP-LC retention time of 847 s.

`O=C(c1ccc(Br)cc1)N1CCN(c2cc(-c3ccccc3)[nH]n2)CC1` gave an RP-LC retention time of 849 s.

In the case of `O=C(Cn1cccc(-c2nc(-c3ccc(F)cc3)no2)c1=O)Nc1cccc(Br)c1`, the RP-LC retention time is 950 s.

The compound `COC(=O)c1c(C)c(C(=O)C(C)N(CCC(C)C)C(=O)c2cccc(F)c2)c(C)n1C` (stereo not drawn) had an RP-LC retention time of 1100 s.

Turning to `CN(C)C(=O)N1CC(c2nc(-c3ccc(F)cc3)no2)C2(CCOCC2)C1` (stereo not drawn), the RP-LC retention time is 790 s.

Turning to `CN1C(=O)c2cccn2CC1CNC(=O)c1cccs1` (stereo not drawn), the RP-LC retention time was found to be 628 s.

In the case of `O=C(Cn1ccn2nc(-c3ccc(F)cc3)c(CO)c2c1=O)Nc1cc(F)ccc1Cl`, the RP-LC retention time is 894 s.

In the case of `Cc1nn2c(CNC(=O)c3ccc(F)c(F)c3)c(C)nc2s1`, the RP-LC retention time stood at 634 s.

The compound `O=c1[nH]c2ccc(NCc3ccc(F)cc3)cc2[nH]1` registered an RP-LC retention time of 580 s.

Consider `COc1ccc2c(c1)CCc1sc(NC(=O)c3cc(OC)c(OC)c(OC)c3)nc1-2`, for which the RP-LC retention time stood at 1080 s.

`O=C(Nc1cnc(N2CCCCC2)nc1)c1ccc(F)cc1F` showed an RP-LC retention time of 934 s.

With `CCN1c2ccc(F)cc2C(=O)NC12CCN(C(=O)c1cccc(OC)c1)CC2`, the RP-LC retention time was 786 s.

Consider `CCCS(=O)(=O)N1CCc2c(c(CN(C(=O)c3ccccc3)c3ccccc3)nn2C)C1`, for which the RP-LC retention time is 833 s.

Regarding `CC1CCCCN1Cc1nc(-c2ccc(N3CCSCC3)nc2)no1` (stereo not drawn), the RP-LC retention time was 642 s.

In the case of `COc1ccc(-c2nc3ncccn3c2Nc2ccc3c(c2)OCCO3)cc1`, the RP-LC retention time was determined as 674 s.

As for `CCN1c2cc(F)ccc2C(=O)NC12CCN(C(=O)c1ccc(C)cc1)CC2`, the RP-LC retention time was determined as 807 s.

`COc1cccc(-n2c(=O)c(C(=O)NCc3cccs3)c(O)c3cccnc32)c1`: the RP-LC retention time amounted to 1170 s.

`COc1ccc(NC(=O)N2CCCC2c2nc(-c3ccc(F)cc3F)no2)c(OC)c1` (stereo not drawn) gave an RP-LC retention time of 940 s.

In turn, `CCOc1ccc(-c2csc(NC(=O)CCCOc3ccc(CC)cc3)n2)cc1` came in with an RP-LC retention time of 1290 s.

`CCc1nc2cc(N3CCCC(C(=O)NCCN4CCCC4)C3)cnc2nc1CC` (stereo not drawn): the RP-LC retention time came to 601 s.

Take `Cc1c(C(=O)N2CCCCC2)c(S(=O)(=O)N2CCN(c3ccccn3)CC2)c(C)n1C`: the RP-LC retention time is 629 s.

`Cc1ccc(NC(=O)c2c(C)sc3ncnc(N4CCCC(C)C4)c23)cc1` (stereo not drawn) gave an RP-LC retention time of 1220 s.

In the case of `Cc1cc(-c2ccc(S(=O)(=O)N3CCC(C(=O)NCc4cccs4)CC3)o2)n[nH]1`, the RP-LC retention time stood at 735 s.

In the case of `Cc1nn(-c2ccc(F)cc2)c2nc(N3CCCC(C(=O)NCc4cccc(F)c4)C3)sc12` (stereo not drawn), the RP-LC retention time was 1130 s.

Turning to `COC(=O)C1=C(C)N(C2CCCCC2)C(=O)C1(NC(=O)c1ccccc1OC)C(F)(F)F` (stereo not drawn), the RP-LC retention time was found to be 1090 s.

Compound `Cc1cc(C)c(CN2CCC(N3CCN(Cc4nc(C)no4)C3=O)C2)c(C)c1` (stereo not drawn) returned an RP-LC retention time of 672 s.

The compound `O=C(NCCN1CCOCC1)C1CCCN(c2ncnc3c2nc2n3CCCCC2)C1` (stereo not drawn) had an RP-LC retention time of 575 s.

Consider `CC1(C(=O)NCc2ccccc2)CN(S(C)(=O)=O)CC(=O)N1c1cccc(F)c1` (stereo not drawn), for which the RP-LC retention time came to 710 s.

Compound `CCc1cccc(NC(=O)N2CCc3nc(-c4ccccc4)ncc3C2)c1` yielded an RP-LC retention time of 901 s.

Consider `COC(=O)CNC(=O)NC(C(=O)N1CCc2ccccc21)C(C)C` (stereo not drawn), for which the RP-LC retention time was 740 s.

For the compound `Cc1ccc(S(=O)(=O)N(CCN2CCCCC2C)CC(=O)N2CCNCC2)c(C)c1` (stereo not drawn), the RP-LC retention time worked out at 588 s.

For the compound `CCOC(=O)c1ccc(NC(=O)c2ccc3c(c2)N(CC)C2CCCCN2C3=O)cc1` (stereo not drawn), the RP-LC retention time was found to be 957 s.

As for `CCN1CCN(c2c(S(=O)(=O)c3ccc(Cl)cc3)cnc3cc(OC)c(OC)cc23)CC1`, the RP-LC retention time is 634 s.

Consider `CCc1nc2cc(N3CCC(C(=O)NCc4cc(F)cc(F)c4)CC3)cnc2nc1CC`, for which the RP-LC retention time was found to be 838 s.

The compound `COc1ccc(-c2cn3cccnc3n2)cc1NC(=O)c1ccc(C(F)(F)F)cc1` registered an RP-LC retention time of 778 s.

`Cc1onc(-c2cccc(Br)c2)c1C(=O)NCCCOC(C)C` displayed an RP-LC retention time of 880 s.

Take `CSc1ccc(-c2nc3ccccn3c2Nc2ccc3c(c2)OCCO3)cc1`: the RP-LC retention time amounted to 712 s.

Turning to `CCCNC(=O)Cn1nc2cc(-c3ccc(OC)cc3)nc(C)n2c1=O`, the RP-LC retention time came out at 633 s.

`Cc1ccc(NC(=O)N2CCCN(c3ccc(=O)n(-c4ccccc4)n3)CC2)c(C)c1` yielded an RP-LC retention time of 763 s.

Turning to `O=C(Cc1ccc(Cl)cc1)N1CCN(C(=O)c2nnn3c2COC(c2ccccc2)C3)CC1` (stereo not drawn), the RP-LC retention time came to 921 s.

In turn, `O=C(Cc1nnc(-c2ccc3ncccc3c2)o1)NCc1ccccc1` had an RP-LC retention time of 672 s.

`Cc1cc(C(=O)Nc2ccc(F)c(F)c2)nc2cc(-c3ccco3)nn12` showed an RP-LC retention time of 810 s.

In the case of `O=C(NCCC1=CCCCC1)C1CCCN(c2nccnc2Sc2ccccc2)C1` (stereo not drawn), the RP-LC retention time came out at 1170 s.

In turn, `O=C(Nc1ccc2cn[nH]c2c1)c1ccc(F)cc1F` showed an RP-LC retention time of 675 s.

The compound `CN1CCCc2cc(C(CNC(=O)C(=O)NCc3ccccc3)N3CCCC3)ccc21` (stereo not drawn) yielded an RP-LC retention time of 710 s.

Take `Cc1cccc(CN2C(=O)CN(S(=O)(=O)c3ccccc3)CC2(C)C(=O)NCCC(C)C)c1` (stereo not drawn): the RP-LC retention time worked out at 1030 s.

Compound `CC(C)(C)c1noc(-c2ccnc(-n3cnc(C(=O)NCc4ccccc4)c3)c2)n1` showed an RP-LC retention time of 715 s.

Consider `CCc1cccc(NC(=O)N2CCC(CC(=O)N3CCCCC3)CC2)c1`, for which the RP-LC retention time was determined as 751 s.

In the case of `Cc1ccc(N2C=NS(=O)(=O)c3cccnc32)c(F)c1`, the RP-LC retention time was determined as 801 s.

`COc1ccc(C2C(C(=O)N3CCCCC3)c3cc(OC)c(OC)cc3C(=O)N2C)cc1OC` (stereo not drawn) had an RP-LC retention time of 706 s.

Source of the values: the METLIN SMRT retention time set (Domingo-Almenara et al. 2019).
